Laboratory results as given in patent US8614201B2 (Janssen Pharmaceutica NV, priority 2009, dated 2013).

Biological target: Human TRPA1 (Homo sapiens, UniProt O75762)
Assay: Assay 1: In vitro cellular testing of TRPA1 modulation (CHO-TREx, Fluo-3 calcium fluorescence, AITC agonist)
Assay type: cell-based
Design: expressed in transfected cells; host or cells: CHO-TREx cells (Invitrogen), vector pcDNA4/TO
Conditions: CHO-TREx cells expressing human TRPA1; Fluo-3 fluorescence (FLIPR/Tetra); agonist 15 μM allyl isothiocyanate (AITC); 30 minute antagonist incubation
Protocol: Assay 1: In Vitro Cellular Testing of TRPA1 Modulation
Human TRPA1 (NCBI accession number NM_007332.1) was cloned into pcDNA4/TO. CHO-TREx cells (Invitrogen, Carlsbad, Calif.) were stably transfected with pcDNA4/TO-TRPA1 using lipofection to generate a clonal cell line that expressed human TRPA1 in a tetracycline-inducible manner. Culture medium used was Ham's F-12 supplemented with 10% fetal bovine serum, 2 mM L-glutamine, 5 μg/ml blasticidin and 200 μg/ml zeocin. Cells were seeded in black-walled clear-bottom 96-well plates at a density of 50,000 cells per well and cultured overnight at 37° C. with 5% CO2 in culture medium supplemented with 1 μg/ml tetracycline. On the day of the experiment, cells were washed 3 times with HEPES buffered saline (in mM: NaCl 137, MgCl2 0.5, KCl 2, dextrose 5, CaCl2 2 and HEPES 10; pH 7.4). Cells were then loaded with calcium-sensitive fluorescent dye by incubation in the presence of 4 μM Fluo-3 AM (TefLabs, Austin, Tex.) at room temperature in the dark for 60 minutes. After incubation with dye, cells were washed in assay buffer and, if appropriate, antagonists were added at this time. Following a further 30 minute incubation, cells were assayed using a Fluorometric Imaging Plate Reader (FLIPR™) or a Tetra (both manufactured by Molecular Devices, CA) to simultaneously monitor Fluo-3 fluorescence in all wells (λexcitation=488 nm, λemission=540 nm). Changes in fluorescence were monitored for 3 minutes after the addition of 15 μM allyl isothiocyanate (AITC) as an agonist. Concentration-dependence of receptor blocking was determined by exposing each well of cells in duplicate rows of a 96-well plate to a serial dilution of test compound. The concentration series usually started at 10 μM with a three-fold serial decrement in concentration. The magnitude of the response to agonist challenge was determined by measuring the fluorescence before and 3 minutes after the addition of the agonist. The degree of blocking was determined by comparing the response to that of negative (no added antagonist) and positive (10 μM ruthenium red) control wells. Data were analyzed using a non-linear regression program (Origin; OriginLab, MA) to fit the concentration-response data to a Hill function. Antagonist potencies were determined as the concentration required to produce 50% reduction in the response as compared to the negative and positive controls.

Sequence of Human TRPA1 (O75762 whole entry): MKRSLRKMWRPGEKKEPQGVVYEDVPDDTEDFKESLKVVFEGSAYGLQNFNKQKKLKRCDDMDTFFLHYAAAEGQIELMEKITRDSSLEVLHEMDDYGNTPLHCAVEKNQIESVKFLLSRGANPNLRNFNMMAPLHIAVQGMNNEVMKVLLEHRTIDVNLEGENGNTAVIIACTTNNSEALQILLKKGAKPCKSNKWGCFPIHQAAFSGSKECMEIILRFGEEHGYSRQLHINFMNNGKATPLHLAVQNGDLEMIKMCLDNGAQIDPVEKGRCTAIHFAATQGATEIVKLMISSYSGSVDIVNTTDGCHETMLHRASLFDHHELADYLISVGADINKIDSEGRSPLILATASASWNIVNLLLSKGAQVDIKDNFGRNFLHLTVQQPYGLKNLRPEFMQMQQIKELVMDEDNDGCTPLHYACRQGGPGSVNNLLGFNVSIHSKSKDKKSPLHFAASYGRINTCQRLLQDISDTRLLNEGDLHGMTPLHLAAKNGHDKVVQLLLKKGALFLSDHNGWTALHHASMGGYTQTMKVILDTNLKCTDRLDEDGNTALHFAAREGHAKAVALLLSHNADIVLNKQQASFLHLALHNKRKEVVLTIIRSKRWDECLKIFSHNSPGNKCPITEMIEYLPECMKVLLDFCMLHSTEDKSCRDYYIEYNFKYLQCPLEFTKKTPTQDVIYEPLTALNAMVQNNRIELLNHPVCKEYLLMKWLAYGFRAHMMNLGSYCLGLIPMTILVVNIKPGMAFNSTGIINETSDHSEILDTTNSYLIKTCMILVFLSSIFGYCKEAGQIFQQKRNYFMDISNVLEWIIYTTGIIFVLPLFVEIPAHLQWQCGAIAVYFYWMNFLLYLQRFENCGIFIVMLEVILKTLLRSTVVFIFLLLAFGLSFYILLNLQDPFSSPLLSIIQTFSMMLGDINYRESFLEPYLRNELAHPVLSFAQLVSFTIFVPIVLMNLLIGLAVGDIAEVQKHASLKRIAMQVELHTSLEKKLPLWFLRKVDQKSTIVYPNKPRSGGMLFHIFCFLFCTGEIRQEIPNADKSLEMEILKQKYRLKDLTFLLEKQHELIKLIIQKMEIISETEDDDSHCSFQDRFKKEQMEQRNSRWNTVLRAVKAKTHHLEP

Compound | IC50
CC(NC(=O)[C@@H]1CCCN1S(=O)(=O)c1ccc(F)cc1)c1cc(-c2ccc(C(F)(F)F)cc2)ncn1 (single isomer, unassigned) [Example 181, (1S*,2S)-1-(4-Fluoro-benzenesulfonyl)-pyrrolidine-2-carboxylic acid {1-[6-(4-trifluoromethyl-phenyl)-pyrimidin-4-yl]-ethyl}-amide] | 602 nM
CC(NC(=O)[C@@H]1CCCN1S(=O)(=O)c1ccc(F)cc1)c1cc(-c2ccc(C(F)(F)F)cc2)ncn1 (single isomer, unassigned) [Example 182, (1R*,2S)-1-(4-Fluoro-benzenesulfonyl)-pyrrolidine-2-carboxylic acid {1-[6-(4-trifluoromethyl-phenyl)-pyrimidin-4-yl]-ethyl}-amide] | 923 nM
CC(C)CN1CCN(c2nc(CNC(=O)[C@@H]3CCCN3S(=O)(=O)c3ccc(F)cc3)cc(-c3ccc(C(F)(F)F)cc3)n2)CC1 [Example 1, 1-(4-Fluoro-benzenesulfonyl)-pyrrolidine-2S-carboxylic acid [2-(4-isobutyl-piperazin-1-yl)-6-(4-trifluoromethyl-phenyl)-pyrimidin-4-ylmethyl]-amide] | 36 nM
COc1nc(CNC(=O)[C@@H]2CCCN2S(=O)(=O)c2ccc(F)cc2)cc(-c2ccc(C(F)(F)F)cc2)n1 [Example 2, 1-(4-Fluoro-benzenesulfonyl)-pyrrolidine-2S-carboxylic acid [2-methoxy-6-(4-trifluoromethyl-phenyl)-pyrimidin-4-ylmethyl]-amide] | 40 nM
O=C(NCc1cc(-c2ccc(C(F)(F)F)cc2)nc(-c2cccnc2)n1)[C@@H]1CCCN1S(=O)(=O)c1ccc(F)cc1 [Example 3, 1-(4-Fluoro-benzenesulfonyl)-pyrrolidine-2S-carboxylic acid [2-pyridin-3-yl-6-(4-trifluoromethyl-phenyl)-pyrimidin-4-ylmethyl]-amide] | 108 nM
O=C(NCc1cc(-c2ccc(C(F)(F)F)cc2)nc(-c2ccncc2)n1)[C@@H]1CCCN1S(=O)(=O)c1ccc(F)cc1 [Example 7, 1-(4-Fluoro-benzenesulfonyl)-pyrrolidine-2S-carboxylic acid [2-pyridin-4-yl-6-(4-trifluoromethyl-phenyl)-pyrimidin-4-ylmethyl]-amide] | 229 nM
Nc1nc(CNC(=O)[C@@H]2CCCN2S(=O)(=O)c2ccc(F)cc2)cc(-c2ccc(C(F)(F)F)cc2)n1 [Example 8, 1-(4-Fluoro-benzenesulfonyl)-pyrrolidine-2S-carboxylic acid [2-amino-6-(4-trifluoromethyl-phenyl)-pyrimidin-4-ylmethyl]-amide] | 475 nM
CC(C)N1CCN(c2nc(CNC(=O)[C@@H]3CCCN3S(=O)(=O)c3ccc(F)cc3)cc(-c3ccc(C(F)(F)F)cc3)n2)CC1 [Example 9, 1-(4-Fluoro-benzenesulfonyl)-pyrrolidine-2S-carboxylic acid [2-(4-isopropyl-piperazin-1-yl)-6-(4-trifluoromethyl-phenyl)-pyrimidin-4-ylmethyl]-amide] | 542 nM
O=C(NCc1cc(-c2ccc(C(F)(F)F)cc2)ncn1)[C@@H]1CCCN1S(=O)(=O)c1ccc(F)cc1 [Example 11, 1-(4-Fluoro-benzenesulfonyl)-pyrrolidine-2S-carboxylic acid [6-(4-trifluoromethyl-phenyl)-pyrimidin-4-ylmethyl]-amide] | 65 nM
CN1CCC(CNc2nc(CNC(=O)[C@@H]3CCCN3S(=O)(=O)c3ccc(F)cc3)cc(-c3ccc(C(F)(F)F)cc3)n2)C1 (stereo partly drawn) [Example 12, 1-(4-Fluoro-benzenesulfonyl)-pyrrolidine-2S-carboxylic acid [2-[(1-methyl-pyrrolidin-3-ylmethyl)-amino]-6-(4-trifluoromethyl-phenyl)-pyrimidin-4-ylmethyl]-amide] | 1090 nM
CCC(CC)N1CCN(c2nc(CNC(=O)[C@@H]3CCCN3S(=O)(=O)c3ccc(F)cc3)cc(-c3ccc(C(F)(F)F)cc3)n2)CC1 [Example 13, 1-(4-Fluoro-benzenesulfonyl)-pyrrolidine-2S-carboxylic acid [2-[4-(1-ethyl-propyl)-piperazin-1-yl]-6-(4-trifluoromethyl-phenyl)-pyrimidin-4-ylmethyl]-amide] | 90 nM
CCN1CCN(c2nc(CNC(=O)[C@@H]3CCCN3S(=O)(=O)c3ccc(F)cc3)cc(-c3ccc(C(F)(F)F)cc3)n2)CC1 [Example 15, 1-(4-Fluoro-benzenesulfonyl)-pyrrolidine-2S-carboxylic acid [2-(4-ethyl-piperain-1-yl)-6-(4-trifluoromethyl-phenyl)-pyrimidin-4-ylmethyl]-amide] | 418 nM
CN(C)CCN1CCN(c2nc(CNC(=O)[C@@H]3CCCN3S(=O)(=O)c3ccc(F)cc3)cc(-c3ccc(C(F)(F)F)cc3)n2)CC1 [Example 17, 1-(4-Fluoro-benzenesulfonyl)-pyrrolidine-2S-carboxylic acid [2-[4-(2-dimethylamino-ethyl)-piperazin-1-yl]-6-(4-trifluoromethyl-phenyl)-pyrimidin-4-ylmethyl]-amide] | 2080 nM

Now those with a lower IC50, led by results:

IC50 | Compound
34 nM | CC(Nc1nc(CNC(=O)[C@@H]2CCCN2S(=O)(=O)c2ccc(F)cc2)cc(-c2ccc(C(F)(F)F)cc2)n1)c1ccccn1 (stereo partly drawn) [Example 16, 1-(4-Fluoro-benzenesulfonyl)-pyrrolidine-2S-carboxylic acid [2-(1-pyridin-2-yl-ethylamino)-6-(4-trifluoromethyl-phenyl)-pyrimidin-4-ylmethyl]-amide]
30 nM | CN(C)c1nc(CNC(=O)[C@@H]2CCCN2S(=O)(=O)c2ccc(F)cc2)cc(-c2ccc(C(F)(F)F)cc2)n1 [Example 10, 1-(4-Fluoro-benzenesulfonyl)-pyrrolidine-2S-carboxylic acid [2-dimethylamino-6-(4-trifluoromethyl-phenyl)-pyrimidin-4-ylmethyl]-amide]
21 nM | CNc1nc(CNC(=O)[C@@H]2CCCN2S(=O)(=O)c2ccc(F)cc2)cc(-c2ccc(C(F)(F)F)cc2)n1 [Example 14, 1-(4-Fluoro-benzenesulfonyl)-pyrrolidine-2S-carboxylic acid [2-methylamino-6-(4-trifluoromethyl-phenyl)-pyrimidin-4-ylmethyl]-amide]
11 nM | O=C(NCc1cc(-c2ccc(C(F)(F)F)cc2)nc(-c2ccccc2C(F)(F)F)n1)[C@@H]1CCCN1S(=O)(=O)c1ccc(F)cc1 [Example 6, 1-(4-Fluoro-benzenesulfonyl)-pyrrolidine-2S-carboxylic acid [2-(2-trifluoromethyl-phenyl)-6-(4-trifluoromethyl-phenyl)-pyrimidin-4-ylmethyl]-amide]
9 nM | O=C(NCc1cc(-c2ccc(C(F)(F)F)cc2)nc(-c2cccc(C(F)(F)F)c2)n1)[C@@H]1CCCN1S(=O)(=O)c1ccc(F)cc1 [Example 5, 1-(4-Fluoro-benzenesulfonyl)-pyrrolidine-2S-carboxylic acid [2-(3-trifluoromethyl-phenyl)-6-(4-trifluoromethyl-phenyl)-pyrimidin-4-ylmethyl]-amide]
3 nM | O=C(NCc1cc(-c2ccc(C(F)(F)F)cc2)nc(-c2ccc(C(F)(F)F)cc2)n1)[C@@H]1CCCN1S(=O)(=O)c1ccc(F)cc1 [Example 4, 1-(4-Fluoro-benzenesulfonyl)-pyrrolidine-2S-carboxylic acid [2,6-bis-(4-trifluoromethyl-phenyl)-pyrimidin-4-ylmethyl]-amide]
